Source: article PMC6710338, “Turning a Collagenesis-Inducing Peptide Into a Potent Antibacterial and Antibiofilm Agent Against Multidrug-Resistant Gram-Negative Bacteria” (Frontiers in Microbiology, 2019)
Peptide text beside a SMILES is read from it.

Columns and labels:
[1] = system: MDR P. aeruginosa isolates (PA002, PA004, Pa3); experiment: Inhibition of biofilm formation, crystal violet assay; format: cell-based, Pseudomonas aeruginosa; details: in TSB
Description: The ability of peptide 3.1-PP4 to inhibit the biofilm formation by three P. aeruginosa isolates (PA002, PA004, Pa3) and by three K. pneumoniae isolates (KP004, KP007 and KP010) was assessed at concentrations equal to the MIC, 1/2 × MIC and 1/4 × MIC in tryptic soy broth – (TSB – Liofilchem s.r.l., Italy) using the crystal violet assay as reported by [Gomes et al. (2014)]. Two independent experiments were performed in triplicate.
Some of the MDR isolates of P. aeruginosa and K. pneumoniae were randomly selected to form biofilms in the absence (controls) and presence (at MIC, 1/2 × MIC and 1/4 × MIC) of the peptide 3.1-PP4. In this assay, the test compounds were used at sub-inhibitory concentrations, since if they had been present at the MIC or higher concentrations, bacteria would be killed before starting to produce the biofilms.
FIGURE 1 Biofilm biomass quantitation of biofilms formed in the presence of peptide 3.1-PP4. Biofilms of three MDR P. aeruginosa (PA002, Pa3, and PA004) and of three MDR K. pneumoniae (KP004, KP007, and KP010) were formed in the presence of the peptide at three different concentrations, MIC, 1/2 × MIC, and 1/4 × MIC. Control biofilms were grown in absence of the peptide. Two independent experiments were performed in triplicate. Error bars represent SD. […]

E. faecalis ATCC 29212 = experiment: MIC, broth microdilution (CLSI), ATCC reference strain; format: cell-based, Enterococcus faecalis
Description: (§1) The minimum inhibitory concentration (MIC) of synthetic peptides was determined using the broth microdilution method in cation-adjusted Mueller-Hinton broth (MHB2 – Sigma-Aldrich, St. Louis, MO, United States), according to the recommendations of the Clinical and Laboratory Standards Institute ([CLSI, 2012]), against four reference strains, namely, P. aeruginosa ATCC 27853, E. coli ATCC 25922, S. aureus ATCC 25923 and Enterococcus faecalis ATCC 29212. MIC values of peptide 3.1-PP4 were also determined against MDR clinical isolates of P. aeruginosa (PA002, PA004, Pa3, Pa4), E. coli (Ec1, Ec2, EC001, EC002, EC003) and K. pneumoniae (KP004, KP007, KP010). The peptides were tested in the concentration range of 1–1024 μg/mL. The minimum bactericidal concentration (MBC) was determined as previously reported ([Bessa et al., 2018]). According to CLSI guidelines for antimicrobial susceptibility testing, MIC values were determined for all peptides against ATCC reference strains of two Gram-positive (S. aureus ATCC 25923 and E. faecalis ATCC 29212), and two Gram-negative (P. aeruginosa ATCC 27853 and E. coli ATCC 25922) bacterial species, and are shown in Table 2.

[2] = system: multidrug-resistant isolates of Klebsiella pneumoniae, E. coli, and P. aeruginosa; format: cell-based
Description: as §1, with “2018]).” for “2018]). According to CLSI guidelines for antimicrobial susceptibility testing, MIC values were determined for all peptides against ATCC reference strains of two Gram-positive (S. aureus ATCC 25923 and E. faecalis ATCC 29212), and two Gram-negative (P. aeruginosa ATCC 27853 and E. coli ATCC 25922) bacterial species, and are shown in Table 2.”
In view of the above results, peptide conjugate 3.1-PP4 was selected for further investigation of its activity against MDR isolates of three Gram-negative bacterial species, namely, P. aeruginosa (four isolates), E. coli (five isolates), and K. pneumoniae (four isolates), whose antimicrobial resistance patterns are provided in the Supplementary Table S1. […]

[3] = system: preformed biofilms of MDR K. pneumoniae isolates; experiment: Biofilm metabolic activity (MTT); format: cell-based, Klebsiella pneumoniae; details: 20 × MIC, 24 h at 37°C, absorbance 570 nm
Description: The respective control biofilms were equally formed but in absence of the peptide (only TSB medium was used). Afterward, the bacterial metabolic activity of biofilms was quantified after adding 3-(4,5-dimethylthiazole-2-yl)-2,5-diphenyl tetrazolium bromide (MTT, 0.5 mg/mL – Sigma-Aldrich, St. Louis, MO, United States) for 3 h at 37°C in the dark. DMSO was used to dissolve the formazan crystals formed and the absorbance at 570 nm was measured. Two independent experiments were performed in four replicates.
The influence of the peptide on the metabolic activity of preformed biofilms of one P. aeruginosa (PA004) and three K. pneumoniae (KP004, KP007, and KP010) isolates was also assessed, through a standard MTT assay.

With `CC(C)C[C@H](NC(=O)[C@H](Cc1c[nH]c2ccccc12)NC(=O)[C@H](CCCCN)NC(=O)[C@H](CC(C)C)NC(=O)[C@H](CC(C)C)NC(=O)[C@H](CCCCN)NC(=O)[C@@H](N)CCCCN)C(=O)N[C@@H](CC(C)C)C(=O)N[C@@H](CCCCN)C(=O)N[C@@H](CC(C)C)C(=O)N[C@@H](CC(C)C)C(=O)N[C@@H](CCCCN)C(=O)N[C@H](C(=O)N[C@H](C(=O)N[C@@H](CCCCN)C(=O)N[C@@H](CO)C(N)=O)[C@@H](C)O)[C@@H](C)O` [Peptide 3.1-PP4] (H-KKLLKWLLKLLKTTKS-NH2; N-terminus assumed) as the compound, how does the “biofilm formation (crystal violet absorbance at 595 nm)” value ([1]; peptide at 1/2 and 1/4 of the MIC, three P. aeruginosa isolates) read?
Its value is “does not significantly inhibit biofilm formation”.

What about the “biofilm formation (crystal violet absorbance at 595 nm)” value ([1]; peptide at MIC, exception isolate PA002, two experiments in triplicate) of the same compound?
The value was “no biofilm was actually produced”.

And the MIC (E. faecalis ATCC 29212; ATCC 29212)?
The MIC was 33 µM.

What about the MIC (E. faecalis ATCC 29212; E. faecalis ATCC 29212, broth microdilution in MHB2, CLSI, range tested 1–1024 μg/mL) of the same compound?
The MIC was 64 µg/mL.

And the “MIC values against multidrug-resistant isolates” value [2]?
The value was 0.5 to 4.1 µM.

And the “% reduction of metabolic activity in peptide-treated biofilms” value (shortened to “% reduction of metabolic activity”) ([3]; isolate KP004, 24 h preformed biofilm)?
Its value is 79%.

And the “% reduction of metabolic activity” value ([3]; isolate KP007, 24 h preformed biofilm)?
The value was 40%.

What about the “% reduction of metabolic activity” value ([3]; isolate KP010, 24 h preformed biofilm) of the same compound?
The value was 77%.
